Measured values from patent US9556165B2 (priority 2012, dated 2017).
Converted amounts (≈) assume the structure as drawn. Like-named read-outs stand apart in the source and are kept apart here.

Assays:
Format in all cases: cell-based
H. influenzae ATCC 49247 = assay: MIC determination, broth microdilution (CLSI); conditions: broth microdilution; for MIC: Haemophilus influenzae, ATCC49247, strain 12, read-out: MIC strain 12 (H. influenzae ATCC 49247)
M. morganii 126/3048 = assay: MIC determination, broth microdilution (CLSI); conditions: for MIC: Morganella morganii, 126/3048, strain 5
A. baumannii ATCC15308 = assay: MIC determination, broth microdilution (CLSI); conditions: for MIC: Acinetobacter baumannii, ATCC15308, strain 9
E. coli ATCC25922 = assay: MIC determination, broth microdilution (CLSI); conditions: for MIC: Escherichia coli, ATCC25922, strain 1
E. coli J62-TEM-3 = assay: MIC determination, broth microdilution (CLSI); conditions: broth microdilution; for MIC: Escherichia coli, J62TEM3, read-out: MIC strain 18 (E. coli J62-TEM-3), strain 18
E. coli J62 = assay: MIC determination, broth microdilution (CLSI); conditions: broth microdilution; for MIC: Escherichia coli, J62, strain 17, read-out: MIC strain 17 (E. coli J62)
C. perfringens DSM756 = assay: microbe, parasite or virus in culture; conditions: broth microdilution; for MIC: Clostridium perfringens, DSM756, read-out: MIC strain 16 (C. perfringens DSM756), strain 16
K. pneumoniae 60 = assay: MIC determination, broth microdilution (CLSI); conditions: for MIC: Klebsiella pneumoniae, 60, strain 2
Bacteria = assay: MIC determination in combination with β-lactamase inhibitors (constant 4 μg/mL)
C. freundii K21/3034 = assay: MIC determination, broth microdilution (CLSI); conditions: for MIC: Citrobacter freundii, K21/3034, strain 4
S. pneumoniae 113 = assay: MIC determination, broth microdilution (CLSI); conditions: broth microdilution; for MIC: Streptococcus pneumoniae, 113, strain 13, read-out: MIC strain 13 (S. pneumoniae 113)
S. aureus 133 = assay: MIC determination, broth microdilution (CLSI)
B. fragilis 6688 = assay: MIC determination, broth microdilution (CLSI); conditions: broth microdilution; for MIC: Bacteroides fragilis, 6688, strain 15, read-out: MIC strain 15 (B. fragilis 6688)
E. cloacae 34654 = assay: MIC determination, broth microdilution (CLSI); conditions: for MIC: Enterobacter cloacae, 34654, strain 3
S. maltophilia ICB7569 = assay: MIC determination, broth microdilution (CLSI); conditions: for MIC: Stenotrophomonas maltophilia, ICB7569, strain 10
P. aeruginosa PAO1 = assay: MIC determination, broth microdilution (CLSI); conditions: Pseudomonas aeruginosa, PAO1, strain 6
[1] = test system: P. aeruginosa 2297-con (AmpC derepressed); assay: MIC determination, broth microdilution (CLSI); conditions: Pseudomonas aeruginosa, read-out: strain 8 MIC, strain 8
[2] = test system: P. aeruginosa 2297 (AmpC wt); assay: MIC determination, broth microdilution (CLSI); conditions: Pseudomonas aeruginosa, strain 7
[3] = Staphylococcus aureus, 133, strain 14, broth microdilution, read-out: MIC strain 14 (S. aureus 133)
[4] = Staphylococcus aureus, 133, strain 11, read-out: strain 11 MIC

Compound | MIC (H. influenzae ATCC 49247) [µg/mL] | MIC (M. morganii 126/3048) [µg/mL] | MIC (A. baumannii ATCC15308) [µg/mL] | MIC (E. coli ATCC25922) [µg/mL] | MIC (E. coli J62) [µg/mL] | MIC (C. perfringens DSM756) [µg/mL] | MIC (K. pneumoniae 60) [µg/mL] | MIC strain 19 (E. coli J62-TEM-3 + 4 μg/mL clavulanic acid) (Bacteria) [µg/mL] | MIC strain 20 (E. coli J62-TEM-3 + 4 μg/mL sulbactam) (Bacteria) [µg/mL] | MIC strain 21 (E. coli J62-TEM-3 + 4 μg/mL tazobactam) (Bacteria) [µg/mL] | MIC (C. freundii K21/3034) [µg/mL] | MIC (S. pneumoniae 113) [µg/mL] | MIC (S. aureus 133; [3]) [µg/mL] | MIC (B. fragilis 6688) [µg/mL] | MIC (S. maltophilia ICB7569) [µg/mL] | MIC (P. aeruginosa PAO1) [µg/mL] | MIC (E. coli J62-TEM-3) [µg/mL] | MIC (S. aureus 133; [4]) [µg/mL] | MIC [2] [µg/mL] | MIC (E. cloacae 34654) [µg/mL] | also measured
CC1(C)[C@H](NC(=O)/C(=N\OC(CCO)COc2ccc(C(=N)N)cc2)c2csc(N)n2)C(=O)N1OS(=O)(=O)O (single isomer, unassigned) [Example 81A] | 2 (≈ 3.42 µM) | 8 (≈ 13.7 µM) | 8 (≈ 13.7 µM) | 4 (≈ 6.83 µM) | 8 (≈ 13.7 µM) | 8 (≈ 13.7 µM) | 8 (≈ 13.7 µM) | 8 | 8 | 8 | 4 (≈ 6.83 µM) | 0.25 (≈ 0.427 µM) | 32 (≈ 54.6 µM) | 16 (≈ 27.3 µM) | 16 (≈ 27.3 µM) | – | – | – | – | – | MIC strain 18 (E. coli J62-TEM-3) (E. coli J62-TEM-3): 32 µg/mL (≈ 54.6 µM); strain 3 MIC (E. cloacae 34654): 16 µg/mL
CC1(C)[C@H](NC(=O)/C(=N\OC(CCO)COc2ccc(C(=N)N)cc2)c2csc(N)n2)C(=O)N1OS(=O)(=O)O (single isomer, unassigned) [Example 81B] | – | – | – | – | – | – | – | 4 | 4 | 4 | – | – | – | – | – | – | – | – | – | – | MIC strain 12 (H. influenzae ATCC 49247) (H. influenzae ATCC 49247; strain 12): 2 µg/mL (≈ 3.42 µM); strain 5 MIC (M. morganii 126/3048; strain 5): 4 µg/mL; strain 9 MIC (A. baumannii ATCC15308; strain 9): 8 µg/mL; strain 1 MIC (E. coli ATCC25922): 2 µg/mL; MIC strain 18 (E. coli J62-TEM-3) (E. coli J62-TEM-3): 4 µg/mL (≈ 6.83 µM); MIC strain 17 (E. coli J62) (E. coli J62; strain 17): 4 µg/mL (≈ 6.83 µM); MIC strain 16 (C. perfringens DSM756) (C. perfringens DSM756; strain 16): 4 µg/mL (≈ 6.83 µM); strain 2 MIC (K. pneumoniae 60; strain 2): 4 µg/mL; strain 4 MIC (C. freundii K21/3034; strain 4): 2 µg/mL; MIC strain 13 (S. pneumoniae 113) (S. pneumoniae 113; strain 13): 0.125 µg/mL (≈ 0.213 µM); MIC strain 14 (S. aureus 133) (S. aureus 133; strain 14, broth microdilution): 32 µg/mL (≈ 54.6 µM); MIC strain 15 (B. fragilis 6688) (B. fragilis 6688; strain 15): 16 µg/mL (≈ 27.3 µM); strain 3 MIC (E. cloacae 34654): 4 µg/mL; strain 10 MIC (S. maltophilia ICB7569; strain 10): 16 µg/mL
CC1(C)[C@H](NC(=O)/C(=N\OCCCOc2ccc(C(=N)N)cc2)c2csc(N)n2)C(=O)N1OS(=O)(=O)O [Example 58, (2Z)-2-(2-Amino-1,3-thiazol-4-yl)-2-{[3-(4-carbamimidoylphenoxy)propoxy]imino}-N-[(3S)-2,2-dimethyl-4-oxo-1-(sulfooxy)azetidin-3-yl]ethanamide] | 0.5 (≈ 0.9 µM) | 1 (≈ 1.8 µM) | 16 (≈ 28.8 µM) | 2 (≈ 3.6 µM) | 4 (≈ 7.2 µM) | 4 (≈ 7.2 µM) | 4 (≈ 7.2 µM) | 2 | 2 | 2 | 1 (≈ 1.8 µM) | ≤ 0.063 | 4 (≈ 7.2 µM) | 4 (≈ 7.2 µM) | – | 16 (≈ 28.8 µM) | 32 (≈ 57.6 µM) | ≤ 0.063 | 32 (≈ 57.6 µM) | 4 (≈ 7.2 µM) | MIC [1]: 16 µg/mL (≈ 28.8 µM)
C[C@H]1[C@H](NC(=O)/C(=N\OCCOc2ccc(C(=N)NCCO)cc2)c2csc(N)n2)C(=O)N1S(=O)(=O)O [Example 69, (2S,3S)-3-({(2Z)-2-(2-Amino-1,3-thiazol-4-yl)-2-[(2-{4-[N-(2-hydroxyethyl)carbamimidoyl]-phenoxy}ethoxy)imino]acetyl}amino)-2-methyl-4-oxoazetidine-1-sulfonic acid] | ≤ 0.063 | 0.125 (≈ 0.225 µM) | 2 (≈ 3.6 µM) | 0.125 (≈ 0.225 µM) | 0.25 (≈ 0.45 µM) | 1 (≈ 1.8 µM) | 0.25 (≈ 0.45 µM) | 0.25 | 0.25 | 0.25 | 0.125 (≈ 0.225 µM) | ≤ 0.063 | 4 (≈ 7.2 µM) | 1 (≈ 1.8 µM) | – | 4 (≈ 7.2 µM) | 16 (≈ 28.8 µM) | ≤ 0.063 | 8 (≈ 14.4 µM) | 0.25 (≈ 0.45 µM) | –
CC1(C)[C@H](NC(=O)/C(=N\OCCOc2ccc(C(=N)NCC[N+]3(C)CCCC3)cc2)c2csc(N)n2)C(=O)N1OS(=O)(=O)O.O=C([O-])C(F)(F)F [Example 79, 1-(2-{[{4-[2-({[(1Z)-1-(2-Amino-1,3-thiazol-4-yl)-2-{[(3S)-2,2-dimethyl-4-oxo-1-(sulfo-oxy)azetidin-3-yl]amino}-2-oxoethylidene]amino}oxy)ethoxy]phenyl}(imino)-methyl]amino}ethyl)-1-methylpyrrolidinium chloride] | ≤ 0.063 | 1 | 0.5 | 0.5 | 0.5 | 2 | 0.5 | 0.5 | 0.5 | 0.5 | 0.25 | ≤ 0.063 | 2 | 4 | – | 8 | 8 | ≤ 0.063 | 8 | 0.5 | MIC [1]: 4 µg/mL
CC1(C)[C@H](NC(=O)/C(=N\OCCOc2ccc(C(=N)N)cc2)c2csc(N)n2)C(=O)N1OCS(=O)(=O)O [Example 90] | 0.5 (≈ 0.9 µM) | 0.5 (≈ 0.9 µM) | – | 0.5 (≈ 0.9 µM) | 1 (≈ 1.8 µM) | 16 (≈ 28.8 µM) | – | 0.5 | 0.5 | 1 | 0.25 (≈ 0.45 µM) | 0.5 (≈ 0.9 µM) | – | 4 (≈ 7.2 µM) | 4 (≈ 7.2 µM) | 32 (≈ 57.6 µM) | 0.5 (≈ 0.9 µM) | 0.5 (≈ 0.9 µM) | 32 (≈ 57.6 µM) | 1 (≈ 1.8 µM) | MIC [1]: 32 µg/mL (≈ 57.6 µM)
CC1(C)[C@H](NC(=O)/C(=N\O[C@@H](COc2ccc(C(=N)NCc3ncc[nH]3)cc2)C(=O)O)c2csc(N)n2)C(=O)N1OS(=O)(=O)O [Example 104, (2S)-2-({[(1Z)-1-(2-Amino-1,3-thiazol-4-yl)-2-{[(3S)-2,2-dimethyl-4-oxo-1-(sulfooxy)azetidin-3-yl]amino}-2-oxoethylidene]amino}oxy)-3-{4-[N-(1H-imidazol-2-ylmeth-yl)carbamimidoyl]phenoxy}propanoic acid] | ≤ 0.063 | 0.5 (≈ 0.751 µM) | – | – | 1 (≈ 1.5 µM) | 8 (≈ 12 µM) | 1 (≈ 1.5 µM) | 1 | 1 | 1 | 1 (≈ 1.5 µM) | 1 (≈ 1.5 µM) | – | – | 16 (≈ 24 µM) | 16 (≈ 24 µM) | 32 (≈ 48.1 µM) | ≤ 0.063 | – | 1 (≈ 1.5 µM) | strain 1 MIC (E. coli ATCC25922): 1 µg/mL
